From patent US20170258722A1, “ENCAPSULATING LIPOSOMES” (priority 2012, published 2017)

Experimental: Chloroform was removed by flash evaporation and the lipid mixture was dissolved in 1 ml of warm tert-butanol (also referred to as t-butanol). The tert-butanol solution of lipid was then frozen rapidly by immersing the tube in a mixture of isopropanol and dry ice. […] The excess sulfuric acid was then neutralized by adding an appropriate volume of 5 M sodium hydroxide alone or with phosphate buffer. […] After drug loading, the mixture was diluted with 0.9% w/v sodium chloride and sedimented in an ultracentrifuge for 1 hour at 30,000×g. The supernatant was carefully removed and the pellet was re-suspended in a small volume of 0.9% w/v NaCl.
First, DPPC/cholesterol films were lyophilized from t-butanol-treated lipid films. […] Liposomes were sedimented by centrifugation at 30,000 rpm for 0.5 hour to remove any unencapsulated drug.
To measure the encapsulated contents of the liposomes, the liposomes were washed in 0.9% NaCl solution and solubilized with 1:3:1 NaCl:methanol:chloroform.

CCN(CC)CCCC(C)Nc1ccnc2cc(Cl)ccc12 (centres unmarked) [chloroquine]
Drug Loading (% of Added) (Table 2, DPPC:Cholesterol 2:1 liposomes, 0.375M sulfuric acid, phosphate buffered loading): 100 % of Added | loaded using the acid loading methodology (sulfuric acid 0.375 M, 6 mg buprenorphine, 33 mg chloroquine added): 100%
